According to paper PMC6988736 (Bioorganic & medicinal chemistry letters, 2017):
Read-outs that look alike come from different tables or passages of the source.

Tests used:
hTRPV1 [1] = biological target: T1, hTRPV1 (Homo sapiens, UniProt Q8NER1); test: hTRPV1 antagonism, inhibition of activation by capsaicin; format: cell-based; settings: for hTRPV1 antagonism toward capsaicin (in words): hTRPV1 in CHO cells, capsaicin 100 nM; for inhibition at 5 µM: CHO, read-out: inhibition% at 5 μM
hTRPV1 [2] = biological target: T1, hTRPV1; test: hTRPV1 antagonism, activation by heat; format: cell-based
hTRPV1 [3] = biological target: T1, hTRPV1; settings: read-out: heat 45 °C, IC50; hTRPV1, activator heat 45 °C; previous lead; ref [9]; cited from earlier work

T1 sequence (Q8NER1 whole entry): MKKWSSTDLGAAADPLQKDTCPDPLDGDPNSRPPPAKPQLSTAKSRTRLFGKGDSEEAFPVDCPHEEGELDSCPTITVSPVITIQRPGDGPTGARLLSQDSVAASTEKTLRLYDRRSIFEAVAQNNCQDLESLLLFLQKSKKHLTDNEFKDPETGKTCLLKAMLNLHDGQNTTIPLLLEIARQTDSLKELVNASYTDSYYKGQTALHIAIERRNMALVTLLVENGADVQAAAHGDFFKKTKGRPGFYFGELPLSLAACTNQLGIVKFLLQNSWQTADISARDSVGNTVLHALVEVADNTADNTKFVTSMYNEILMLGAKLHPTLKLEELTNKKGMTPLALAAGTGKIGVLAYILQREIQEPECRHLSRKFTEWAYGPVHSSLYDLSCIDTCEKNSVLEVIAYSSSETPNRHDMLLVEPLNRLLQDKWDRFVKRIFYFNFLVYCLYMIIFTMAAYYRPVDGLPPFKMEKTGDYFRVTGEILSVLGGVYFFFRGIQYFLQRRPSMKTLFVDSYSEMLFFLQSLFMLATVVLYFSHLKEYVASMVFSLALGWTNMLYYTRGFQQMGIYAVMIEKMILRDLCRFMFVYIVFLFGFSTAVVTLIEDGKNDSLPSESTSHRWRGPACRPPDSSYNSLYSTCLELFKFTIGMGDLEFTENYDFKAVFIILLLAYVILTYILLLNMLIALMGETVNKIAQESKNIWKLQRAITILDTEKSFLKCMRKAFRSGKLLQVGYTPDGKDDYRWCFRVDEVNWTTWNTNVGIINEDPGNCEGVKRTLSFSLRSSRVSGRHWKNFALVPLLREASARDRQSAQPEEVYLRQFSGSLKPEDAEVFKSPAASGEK

Compound | hTRPV1 antagonism toward capsaicin (in words) (hTRPV1 [1]) | inhibition at 5 µM (hTRPV1 [1]) | further results
COc1ccc(-n2nc(C(C)(C)C)cc2CNC(=O)C(C)c2ccc(NS(C)(=O)=O)c(F)c2)cc1 (stereo not shown) [Compound 9] | dramatic reduction in activity | – | –
CC(C(=O)NCc1cc(C(C)(C)C)nn1-c1ccc(C(C)(C)C)cc1)c1ccc(NS(C)(=O)=O)c(F)c1 (stereo not shown) [Compound 11] | dramatic reduction in activity | – | –
Cc1ccc(/C=C/c2ccc(-n3nc(C(C)(C)C)cc3CNC(=O)C(C)c3ccc(NS(C)(=O)=O)c(F)c3)cc2)cc1 (stereo not shown) [Compound 12] | dramatic reduction in activity | – | –
C[C@H](C(=O)NCc1cc(C(C)(C)C)nn1-c1cccc(Cl)c1)c1ccc(NS(C)(=O)=O)c(F)c1 [Compound 13S] | – | – | IC50 (hTRPV1 [2]): > 5 µM
C[C@H](C(=O)NCc1cc(C(C)(C)C)nn1-c1ccc(F)c(Cl)c1)c1ccc(NS(C)(=O)=O)c(F)c1 [Compound 14S] | high potency | – | –
CC(C(=O)NCc1cc(C(C)(C)C)nn1-c1ccc(F)c(Cl)c1)c1ccc(NS(C)(=O)=O)c(F)c1 (stereo not shown) [Compound 14] | high potency | – | –
CC(C)(C)c1cc(CNC(=O)C(c2ccc(NS(C)(=O)=O)c(F)c2)C2CCCCC2)n(-c2cccc(Cl)c2)n1 (stereo not shown) [Compound 17] | – | 46% | –
Cc1ccc(C(C(=O)NCc2cc(C(C)(C)C)nn2-c2cccc(Cl)c2)c2ccc(NS(C)(=O)=O)c(F)c2)cc1 (stereo not shown) [Compound 18] | – | 12% | –
CC(C)(C)c1cc(CNC(=O)C(c2cccc(F)c2)c2ccc(NS(C)(=O)=O)c(F)c2)n(-c2cccc(Cl)c2)n1 (stereo not shown) [Compound 19] | – | 49% | –
CC1CCN(c2nc(C(F)(F)F)ccc2CNC(=O)[C@@H](C)c2ccc(NS(C)(=O)=O)c(F)c2)CC1 [GRT12360] | – | – | IC50 (hTRPV1 [3]): 0.8 nM
